Test [1] addresses T1, GST-ΔPH-Akt1 (Homo sapiens, UniProt P31749).
T1 construct: named GST-deltaPH-Akt1; 107-480aa; cloned in the pAcGl vector; GST (N); made in house; host or cells: SF9 insect cells (baculovirus vector pAcG1), co-expressed with PDK1
Kind of test: Biochemical ΔPH Akt1 assay (flashplate, 33P incorporation into histone 2B). Particulars: 100 nM ATP, histone 2B substrate; read-out: ΔPHAkt1 inhibition: IC50. The text has this:
For the biochemical assay ΔPHAkt1 is used devoid of its PH domain as a GST fusion protein (named GST-deltaPH-Akt1; 107-480aa; cloned in the pAcGl vector (BD Biosciences Pharmingen)), co-expressed with PDK1 in SF9 insect cells. The protein is purified using glutathion-affinity chromatography by standard protocols.
In order to study the inhibition of Akt according to the invention, a flashplate-based assay has been developed.
The Akt1 assay is a biochemical assay using Akt1 devoid of its PH domain and co-expressed with PDK1 in insect cells. The GST-ΔPH-Akt1 assay is run in 96 well plates by incubating 100 ng/well GST-ΔPH-Akt1, 100 ng/well histone 2B (Roche, #223514) as substrate, 10 μl of compound of invention (test compounds were dissolved as 10 mM solutions in dimethylsulfoxide (DMSO) and subsequently diluted) and 100 nM ATP (including ^33P-ATP) in 100 μl of reaction buffer ([…], pH7,5; 3 mM MgCl2; 3 mM MnCl2; 3 μM Na-Orthovanadat; 1 mM DTT; 1 μg/ml PEG8000) for 80 minutes at 30° C. The reactions are terminated by adding 100 μl stopping buffer (2% H3PO4 for 5 minutes) and are washed 3 times by using washing buffer (0.9% NaCl). Relying on the incorporation of ^33P into the protein substrate histone 2B, the detection is based on the adhesion of the phosphorylated protein to the surface of scintillator-coated flash plates (NEN, USA; #SMP-200). This phosphorylation is measured by counting the plate for 60 sec. using a plate reader (Wallac Microbeta; Perkin Elmer, USA).

Test [2] has as its target T2, PKA (Homo sapiens, UniProt P17612).
T2 construct: His; purchased PanVera, USA #R3791; host or cells: E. coli
Kind of test: Biochemical PKA assay (flashplate). Particulars: 100 nM ATP; read-out: PKA inhibition: −log IC50 (converted). The procedure: For the biochemical PKA assay the catalytic subunit of PKA is expressed in E. coli as a His-tagged human recombinant protein and purified accordingly (PanVera, USA; #R3791).
In order to study the kinase inhibition activity of the compounds according to the invention, a flashplate-based assay has been developed for the serine/threonine kinase, PKA. The assay is run in 96 well plates by incubating 1 ng/well His-PKA (PanVera, USA; #R3791), 0.5 μM/well PKA peptide (#12-394; Upstate, USA) as substrate, 10 μl of compound of invention (test compounds were dissolved as 10 mM solutions in dimethylsulfoxide (DMSO) and subsequently diluted) and 100 nM ATP (including ^33P-ATP) in 100 μl of reaction buffer ([…], pH7,5; 3 mM MgCl2; 3 mM MnCl2; 3 μM Na-Orthovanadat; 1 mM DTT) for 80 minutes at 22° C. The reactions are stopped by adding 100 μl stopping buffer (2% H3PO4 for 5 minutes) and are washed 3 times by using washing buffer (200 μl 1×PBS). Relying on the incorporation of ^33P into the peptide substrate, the detection is based on the adhesion of the phosphorylated peptide to the surface of scintillator-coated Flash plates (Perkin Elmer, USA; #SMP-103). This phosphorylation is measured by counting the plate for 60 sec. using a plate reader (Wallac Microbeta; Perkin Elmer, USA). By using this method the IC50 of the PKA inhibition is determined.

Test [3] concerns MCF7 cells. Briefly: Cellular proliferation/cytotoxicity assay (Alamar Blue), MCF7. Particulars: Homo sapiens, MCF7, 48 h, read-out: Anti-proliferative/cytotoxic activity: IC50 MCF7.
Test [4] concerns MDA-MB-468 cells. Briefly: Cellular proliferation/cytotoxicity assay (Alamar Blue), MDA-MB-468. Particulars: Homo sapiens, MDA-MB-468, 48 h, read-out: Anti-proliferative/cytotoxic activity: IC50 MDA468. For orientation: The colour change of resazurin is a common sign of viable cells or microbes.
Protocol: The anti-proliferative activity of the compounds as described herein, is evaluated using MCF7 and MDA-MB-468 (ATCC HTB-22 and HTB-132) cell lines and the Alamar Blue (Resazurin) cell viability assay (O'Brien et al. Eur J Biochem 267, 5421-5426, 2000). Resazurin is reduced to the fluorescent resorufin by cellular dehydrogenase activity, correlating with viable, proliferating cells. Test compounds are dissolved as 10 mM solutions in DMSO and subsequently diluted. MCF7 or MDA-MB-434 cells were seeded into 96 well flat bottom plates at a density of 10000 cells/well (MCF7) or 5000 cells/well (MDA-MB-468) in a volume of 200 μl/well. 24 hours after seeding, 1 μl each of the compound dilutions are added into each well of the 96 well plates. Each compound dilution is tested as at least as duplicates. Wells containing untreated control cells were filled with 200 μl DMEM containing 0.5% v:v DMSO. The cells are then incubated with the substances for 48 hours at 37° C. in a humidified atmosphere containing 5% carbon dioxide. To determine cell viability, 20 μl of a Resazurin solution (Sigma; 90 mg/l) are added. After 4 hours incubation at 37° C. the fluorescence is measured at an extinction of 544 nm and an emission of 590 nm (Wallac Victor2; Perkin Elmer, USA). For the calculation of the cell viability the emission value from untreated cells is set as 100% viability and the emission rates of treated cells are set in relation to the values of untreated cells. Viabilities are expressed as % values. The corresponding IC50 values of the compounds for cytotoxic activity are determined from the concentration-effect curves by means of non-linear regression. The analysis of the data is performed using a biostatistical program (GraphPad Prism, USA).

16 molecules from patent US7745446B2, “Pyrazolo[1,5-c]pyrimidines” (Bayer Schering Pharma Aktiengesellschaft, priority 2004, dated 2010) can be followed below.

T1 sequence (P31749 107-480, stated change not applied): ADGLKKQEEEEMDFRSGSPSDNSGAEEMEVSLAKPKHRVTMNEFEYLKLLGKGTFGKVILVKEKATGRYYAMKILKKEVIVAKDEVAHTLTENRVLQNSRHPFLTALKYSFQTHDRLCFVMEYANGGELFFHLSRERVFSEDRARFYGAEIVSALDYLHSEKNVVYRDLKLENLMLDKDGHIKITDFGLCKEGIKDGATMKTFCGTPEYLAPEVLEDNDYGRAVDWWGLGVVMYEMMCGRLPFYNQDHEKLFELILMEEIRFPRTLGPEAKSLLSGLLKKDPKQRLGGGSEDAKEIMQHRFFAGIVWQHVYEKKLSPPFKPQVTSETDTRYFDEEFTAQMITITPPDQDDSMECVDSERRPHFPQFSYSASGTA

For `NCc1ccc(C(=O)Nc2ccc(Nc3nc(-c4cccc5c4oc4ccccc45)cc4ccnn34)cc2)cn1` [Example 29, 6-Aminomethyl-N-[4-(5-dibenzofuran-4-yl-pyrazolo[1,5-c]pyrimidin-7-ylamino)-phenyl]-nicotinamide], the IC50 is at most 1.75 µM in test [1], over 100 µM in test [2], at most 16.9 µM in test [3] and at most 13.6 µM in test [4].
In the same order, the values of `CNCc1ccc(C(=O)Nc2cccc(Nc3nc(-c4cccc5c4oc4ccccc45)cc4ccnn34)c2)cc1` [Example 32, N-[3-(5-Dibenzofuran-4-yl-pyrazolo[1,5-c]pyrimidin-7-ylamino)-phenyl]-4-methylaminomethyl-benzamide] are at most 1.75 µM, 6.31 to 100 µM, at most 16.9 µM and at most 13.6 µM.
On the same counts, the results for `CNCc1ccc(C(=O)Nc2ccc(Nc3nc(-c4cccc5c4oc4ccccc45)cc4ccnn34)cc2)cc1` [Example 33, N-[4-(5-Dibenzofuran-4-yl-pyrazolo[1,5-c]pyrimidin-7-ylamino)-phenyl]-4-methylaminomethyl-benzamide] are at most 1.75 µM, over 100 µM, at most 16.9 µM and at most 13.6 µM.
Consider `O=C(Nc1cccc(Nc2nc(-c3cccc4c3oc3ccccc34)cc3ccnn23)c1)c1ccc2c(c1)CNCC2` [Example 34, 1,2,3,4-Tetrahydro-isoquinoline-7-carboxylic acid [3-(5-dibenzofuran-4-yl-pyrazolo[1,5-c]pyrimidin-7-ylamino)-phenyl]-amide], for which the IC50 in test [1] was at most 1.75 µM; in test [2], 6.31 to 100 µM; in test [3], at most 16.9 µM; in test [4], at most 13.6 µM.
In the same order, the values of `O=C(Nc1ccc(Nc2nc(-c3cccc4c3oc3ccccc34)cc3ccnn23)cc1)c1ccc2c(c1)CNCC2` [Example 35, 1,2,3,4-Tetrahydro-isoquinoline-7-carboxylic acid [4-(5-dibenzofuran-4-yl-pyrazolo[1,5-c]pyrimidin-7-ylamino)-phenyl]-amide] are at most 1.75 µM, over 100 µM, at most 16.9 µM and at most 13.6 µM.
`NCc1ccc(C(=O)Nc2ccc(Nc3nc(-c4cccc5c4oc4ccccc45)cc4ccnn34)cc2)o1` [Example 38, 5-Aminomethyl-furan-2-carboxylic acid [4-(5-dibenzofuran-4-yl-pyrazolo[1,5-c]pyrimidin-7-ylamino)-phenyl]-amide]: the IC50 in test [1] was at most 1.75 µM; in test [2], over 100 µM; in test [3], at most 16.9 µM; in test [4], at most 13.6 µM.
In the same order, the values of `CC(C)(N)c1ccc(C(=O)Nc2ccc(Nc3nc(-c4cccc5c4oc4ccccc45)cc4ccnn34)cc2)cc1` [Example 39, 4-(1-Amino-1-methyl-ethyl)-N-[4-(5-dibenzofuran-4-yl-pyrazolo[1,5-c]pyrimidin-7-ylamino)-phenyl]-benzamide] are at most 1.75 µM, 6.31 to 100 µM, at most 16.9 µM and at most 13.6 µM.
`NCc1ccc(C(=O)Nc2ccc(Nc3nc(-c4ccc5cc(OCc6ccccc6)ccc5c4)cc4ccnn34)cc2)cc1` [Example 42, 4-Aminomethyl-N-{4-[5-(6-benzyloxy-naphthalen-2-yl)-pyrazolo[1,5-c]pyrimidin-7-ylamino]-phenyl}-benzamide]: the IC50 in test [1] was at most 1.75 µM; in test [2] it was over 100 µM; in test [3], at most 16.9 µM; in test [4], at most 13.6 µM.
In the same order, the values of `CCOc1ccc2cc(-c3cc4ccnn4c(Nc4ccc(NC(=O)c5ccc(CN)cc5)cc4)n3)ccc2c1` [Example 46, 4-Aminomethyl-N-{4-[5-(6-ethoxy-naphthalen-2-yl)-pyrazolo[1,5-c]pyrimidin-7-ylamino]-phenyl}-benzamide] are at most 1.75 µM, over 100 µM, at most 16.9 µM and at most 13.6 µM.
On the same counts, the results for `COCCOc1ccc2cc(-c3cc4ccnn4c(Nc4ccc(NC(=O)c5ccc(CN)cc5)cc4)n3)ccc2c1` [Example 47, 4-Aminomethyl-N-(4-{5-[6-(2-methoxy-ethoxy)-naphthalen-2-yl]-pyrazolo[1,5-c]pyrimidin-7-ylamino}-phenyl)-benzamide] are at most 1.75 µM, over 100 µM, at most 16.9 µM and at most 13.6 µM.
On the same counts, the results for `NCc1cncc(C(=O)Nc2ccc(Nc3nc(-c4cccc5c4oc4ccccc45)cc4ccnn34)cc2)c1` [Example 52, 5-Aminomethyl-N-[4-(5-dibenzofuran-4-yl-pyrazolo[1,5-c]pyrimidin-7-ylamino)-phenyl]-nicotinamide] are at most 1.75 µM, over 100 µM, at most 16.9 µM and at most 13.6 µM.
For `NCc1ccnc(C(=O)Nc2ccc(Nc3nc(-c4cccc5c4oc4ccccc45)cc4ccnn34)cc2)c1` [Example 53, 4-Aminomethyl-pyridine-2-carboxylic acid [4-(5-dibenzofuran-4-yl-pyrazolo[1,5-c]pyrimidin-7-ylamino)-phenyl]-amide], the IC50 in test [1] was at most 1.75 µM; in test [2], over 100 µM; in test [3], at most 16.9 µM; in test [4], at most 13.6 µM.
Consider `COc1ccc(-c2ccc(-c3cc4ccnn4c(Nc4ccc(NC(=O)c5ccc(CN)cc5)cc4)n3)cc2)cc1` [Example 55, 4-Aminomethyl-N-{4-[5-(4′-methoxy-biphenyl-4-yl)-pyrazolo[1,5-c]pyrimidin-7-ylamino]-phenyl}-benzamide], for which the IC50 in test [1] is at most 1.75 µM; in test [2], over 100 µM; in test [3] it was at most 16.9 µM; in test [4], at most 13.6 µM.
On the same counts, the results for `COc1ccccc1-c1ccc(-c2cc3ccnn3c(Nc3ccc(NC(=O)c4ccc(CN)cc4)cc3)n2)cc1` [Example 56, 4-Aminomethyl-N-{4-[5-(2′-methoxy-biphenyl-4-yl)-pyrazolo[1,5-c]pyrimidin-7-ylamino]-phenyl}-benzamide] are at most 1.75 µM, 6.31 to 100 µM, at most 16.9 µM and at most 13.6 µM.
With `O=C(Nc1ccc(Nc2nc(-c3cccc4c3oc3ccccc34)cc3ccnn23)cc1)c1ccc(CNCCO)cc1` [Example 57, N-[4-(5-Dibenzofuran-4-yl-pyrazolo[1,5-c]pyrimidin-7-ylamino)-phenyl]-4-[(2-hydroxy-ethylamino)-methyl]-benzamide], the IC50 is at most 1.75 µM in test [1], over 100 µM in test [2], at most 16.9 µM in test [3] and at most 13.6 µM in test [4].
On the same counts, the results for `O=C(Nc1ccc(Nc2nc(-c3cccc4c3oc3ccccc34)cc3ccnn23)cc1)c1ccc2c(c1)CCNC2` [Example 58, 1,2,3,4-Tetrahydro-isoquinoline-6-carboxylic acid [4-(5-dibenzofuran-4-yl-pyrazolo[1,5-c]pyrimidin-7-ylamino)-phenyl]-amide] are at most 1.75 µM, over 100 µM, at most 16.9 µM and at most 13.6 µM.
